Experimental data from patent US12448410B2, “Derivative of sarsasapogenin, pharmaceutical composition and use thereof” (Phytovent Biopharma, priority 2018, dated 2025).

Columns and labels:
Format in all cases: cell-based
[1] = tested on: A172; assay: CTG cell proliferation, brain tumor cells A172; settings: Homo sapiens, A 172; A172, 72 hours, CellTiter-Glo; read-out: Inhibition of in vitro growth of brain tumor cells (IC50)
Description: (§1) Study of CTG Cell Proliferation—Inhibition of In-Vitro Growth of Various Tumor Cells by Sarsasapogenin Derivative
(§2) Tumor cells included: human A549 cells (lung cancer cells) (ATCC, Catalog No. CCL-185), HeLa cells (cervical cancer cells) (ATCC, Catalog No. CCL-2), HepG2 cells (liver cancer cells) (ATCC, Catalog No. HB-8065), A375 cells (melanoma cells) (ATCC, Catalog No. CRL-1619), MCF-7 (breast cancer cell) (ATCC, Catalog No. HTB-22), U87MG (brain glioma cell) (ATCC, Catalog No. HTB-14), LN229 (ATCC, Catalog No. CRL-2611), A172 (ATCC, Catalog No. CRL-1620), KNS-42 (JCRB, Catalog No. IF050356), BE(2)-C (ATCC, Catalog No. CRL-2268), U118MG (ATCC, Catalog No. HTB-15), SW-1088 (ATCC, Catalog No. HTB-12), and SH-SY5Y (CLS, Catalog No. 300154).
(§3) The aforementioned tumor cells were inoculated into clear-bottom white 96-well culture plates (Corning, Catalog No. CLS3903) containing specific medium at 1.8 to 15×10^3 cells per well, and were incubated in an incubator (37° C., 5% CO2) for 24 hours.
(§4) A 10 mM stock solution was prepared by using DMSO (Sigma, Catalog No. D2650) for each compound, diluted with medium to required concentrations (final concentration of DMSO: 0.2%) and added into each well with 2 replicate wells/concentration. The cells were incubated in the incubator at 37° C. and 5% CO2 for 72 hours. Then, 100 μL of CellTiter-Glo® cell activity assay reagent (Promega, Catalog No. G7573) was added into each well and well mixed using a shaker for 10 minutes to induce cytolysis. The 96-well plates were let stand at room temperature for 10 minutes to stabilize the luminous signals. With white bottom membranes attached to the bottoms of the culture plates, the plates were read using EnSpire system. Data were processed by XLfit software to give IC50 values.

[2] = tested on: LN229; assay: CTG cell proliferation, brain tumor cells LN229; settings: Homo sapiens, LN-229; LN229, 72 hours, CellTiter-Glo; read-out: Inhibition of in vitro growth of brain tumor cells (IC50)
Description: as §1, §2, §3, §4

[3] = tested on: BE(2)-C; assay: CTG cell proliferation, brain tumor cells BE(2)-C; settings: Homo sapiens, 72 hours, CellTiter-Glo, read-out: Inhibition of in vitro growth of brain tumor cells (IC50)
Description: as §1, §2, §3, §4

[4] = tested on: SW-1088; assay: CTG cell proliferation, brain tumor cells SW-1088; settings: Homo sapiens, SW1088; SW-1088, 72 hours, CellTiter-Glo; read-out: Inhibition of in vitro growth of brain tumor cells (IC50)
Description: as §1, §2, §3, §4

[5] = tested on: A549 lung cancer cells; assay: CTG cell proliferation, in vitro growth inhibition of A549 lung cancer cells; settings: Homo sapiens, 72 hours, CellTiter-Glo
Description: as §1, §2, §3, §4

[6] = tested on: KNS-42; assay: CTG cell proliferation, brain tumor cells KNS-42; settings: Homo sapiens; KNS-42, 72 hours, CellTiter-Glo; read-out: Inhibition of in vitro growth of brain tumor cells (IC50)
Description: as §1, §2, §3, §4

[7] = tested on: SH-SY5Y; assay: CTG cell proliferation, brain tumor cells SH-SY5Y; settings: Homo sapiens, 72 hours, CellTiter-Glo, read-out: Inhibition of in vitro growth of brain tumor cells (IC50)
Description: as §1, §2, §3, §4

[8] = tested on: U118MG; assay: CTG cell proliferation, brain tumor cells U118MG; settings: Homo sapiens, U-118-MG, 72 hours, CellTiter-Glo, read-out: Inhibition of in vitro growth of brain tumor cells (IC50)
Description: as §1, §2, §3, §4

[9] = tested on: U87MG (brain glioma cell); assay: CTG cell proliferation, brain tumor cells U87MG; settings: Homo sapiens, U-87 MG, 72 hours, CellTiter-Glo, read-out: Inhibition of in vitro growth of brain tumor cells (IC50)
Description: as §1, §2, §3, §4

Structure (SMILES)	IC50 [1] [nM]	IC50 [2] [nM]	IC50 [3] [nM]	IC50 [4] [nM]	inhibition at 1 µM [5] [%]	inhibition at 5 µM [5] [%]	inhibition at 10 µM [5] [%]	IC50 [6] [nM]	IC50 [7] [nM]	IC50 [8] [nM]	IC50 [9] [nM]
C[C@H]1CC[C@@]2(OC1)O[C@H]1C[C@H]3[C@@H]4CC[C@@H]5CC(NC(=O)CCN(C)C)CC[C@]5(C)[C@H]4CC[C@]3(C)[C@H]1[C@@H]2C (stereo partly drawn) [Example 4]	3040	2290	3310	2720	18.2	99	100	1920	2800	1930	2360
C[C@H]1CC[C@@]2(OC1)O[C@H]1C[C@H]3[C@@H]4CC[C@@H]5CC(NC(=O)CC(=O)N6CCN(CCN7CCCC7)CC6)CC[C@]5(C)[C@H]4CC[C@]3(C)[C@H]1[C@@H]2C (stereo partly drawn) [Example 12]	–	–	–	–	4.5	89.6	98.5	–	–	–	–
C[C@H]1CC[C@@]2(OC1)O[C@H]1C[C@H]3[C@@H]4CC[C@@H]5CC(NC(=O)CC(=O)N6CCC(N7CCCCC7)CC6)CC[C@]5(C)[C@H]4CC[C@]3(C)[C@H]1[C@@H]2C (stereo partly drawn) [Example 9]	–	–	–	–	2.09	22.9	97.8	–	–	–	–
C[C@H]1CC[C@@]2(OC1)O[C@H]1C[C@H]3[C@@H]4CC[C@@H]5CC(NC(=O)CN(C)C)CC[C@]5(C)[C@H]4CC[C@]3(C)[C@H]1[C@@H]2C (stereo partly drawn) [Example 3]	–	–	–	–	1	86.2	99	–	–	–	–
C[C@H]1CC[C@@]2(OC1)O[C@H]1C[C@H]3[C@@H]4CC[C@@H]5CC(NC(=O)C6CCN(C)CC6)CC[C@]5(C)[C@H]4CC[C@]3(C)[C@H]1[C@@H]2C (stereo partly drawn) [Example 1]	–	–	–	–	-5.25	31.1	87.6	–	–	–	–
C[C@H]1CC[C@@]2(OC1)O[C@H]1C[C@H]3[C@@H]4CC[C@@H]5CC(NC(=O)CC(=O)NC6CCN(C)CC6)CC[C@]5(C)[C@H]4CC[C@]3(C)[C@H]1[C@@H]2C (stereo partly drawn) [Example 6]	–	–	–	–	-6.51	82.2	99.8	–	–	–	–
C[C@H]1CC[C@@]2(OC1)O[C@H]1C[C@H]3[C@@H]4CC[C@@H]5CC(NC(=O)CC(=O)N6CC7CNCC7C6)CC[C@]5(C)[C@H]4CC[C@]3(C)[C@H]1[C@@H]2C (stereo partly drawn) [Example 11]	–	–	–	–	3.86	57.3	97.2	–	–	–	–
C[C@H]1CC[C@@]2(OC1)O[C@H]1C[C@H]3[C@@H]4CC[C@@H]5CC(NC(=O)CC(=O)N6CCNCC6)CC[C@]5(C)[C@H]4CC[C@]3(C)[C@H]1[C@@H]2C (stereo partly drawn) [Example 10]	–	–	–	–	5.08	65.8	99.3	–	–	–	–
C[C@H]1CC[C@@]2(OC1)O[C@H]1C[C@H]3[C@@H]4CC[C@@H]5C[C@H](NC(=O)CCN6CCN(C)CC6)CC[C@]5(C)[C@H]4CC[C@]3(C)[C@H]1[C@@H]2C [Example 2B]	3840	5520	7900	2750	–	–	–	4780	> 10000	5170	4660
C[C@H]1CC[C@@]2(OC1)O[C@H]1C[C@H]3[C@@H]4CC[C@@H]5CC(NC(=O)CCN6CCN(C)CC6)CC[C@]5(C)[C@H]4CC[C@]3(C)[C@H]1[C@@H]2C (stereo partly drawn) [Example 2]	–	–	–	–	95.3	98.1	100	–	–	–	–
C[C@H]1CC[C@@]2(OC1)O[C@H]1C[C@H]3[C@@H]4CC[C@@H]5CC(NC(=O)CC(=O)NCCCN6CCOCC6)CC[C@]5(C)[C@H]4CC[C@]3(C)[C@H]1[C@@H]2C (stereo partly drawn) [Example 8]	–	–	–	–	36.2	7.71	93.5	–	–	–	–
C[C@H]1CC[C@@]2(OC1)O[C@H]1C[C@H]3[C@@H]4CC[C@@H]5CC(NC(=O)CC(=O)NCC6CCN(C)CC6)CC[C@]5(C)[C@H]4CC[C@]3(C)[C@H]1[C@@H]2C (stereo partly drawn) [Example 7]	–	–	–	–	-0.84	91.7	99.9	–	–	–	–
C[C@H]1CC[C@@]2(OC1)O[C@H]1C[C@H]3[C@@H]4CC[C@@H]5C[C@@H](NC(=O)CCN6CCN(C)CC6)CC[C@]5(C)[C@H]4CC[C@]3(C)[C@H]1[C@@H]2C [Example 2A]	1660	1620	2850	660	–	–	–	1770	2780	1070	1560
C[C@H]1CC[C@@]2(OC1)O[C@H]1C[C@H]3[C@@H]4CC[C@@H]5CC(NC(=O)CC(=O)N6CCN(C)CC6)CC[C@]5(C)[C@H]4CC[C@]3(C)[C@H]1[C@@H]2C (stereo partly drawn) [Example 5]	–	–	–	–	1.37	48.3	95.9	–	–	–	–
